# Data: patent publication US20250092016A1, “COMPOUNDS AND COMPOSITIONS FOR THE TREATMENT OF CORONAVIRAL RELATED DISEASES” (priority 2021, published 2025)
# Target: SARS-CoV-2 main protease (M^pro) (Severe acute respiratory syndrome coronavirus 2, UniProt P0DTD1)
# Test: Rapid-Fire MS Biochemical Assay measuring Mpro activity (5 nM Mpro)
# Settings: Rapid-Fire Assay IC50, Table 1B, Mpro inhibition, 5 μM substrate peptide, 120 min
row,SMILES,IC50
1,"N#CC1CN(C2CCC(F)CC2)C(=O)N1c1cncc2ccccc12 (single isomer, unassigned) [Compound 121b]",< 20 nM

# Same assay, conditions: Table 1B, Mpro inhibition, 5 μM substrate peptide, 120 min, read-out: Rapid-Fire Assay IC50
row,SMILES,IC50
1,"Cn1ccc(N2C[C@@H](C#N)N(c3cncc4ccccc34)C2=O)cc1=O (single isomer, unassigned) [Compound 67b]",> 1000 nM
2,"N#C[C@H]1CN(c2ccc(OC(F)F)cc2)C(=O)N1c1cncc2ccccc12 (single isomer, unassigned) [Compound 71a]",< 20 nM
3,"N#C[C@H]1CN(c2cc(F)cc(F)c2)C(=O)N1c1cncc2ccccc12 (single isomer, unassigned) [Compound 110a]",< 20 nM
4,"N#C[C@@H]1CN(c2ncc(C(F)(F)F)cn2)C(=O)N1c1cncc2ccccc12 (single isomer, unassigned) [Compound 42b]",> 1000 nM
5,"N#C[C@@H]1CN(c2cnnc(C(F)(F)F)c2)C(=O)N1c1cncc2ccccc12 (single isomer, unassigned) [Compound 13b]",> 1000 nM
6,"Cc1cc(N2C[C@@H](C#N)N(c3cncc4ccccc34)C2=O)cc(C)n1 (single isomer, unassigned) [Compound 102b]",200 to 1000 nM
7,"CS(=O)(=O)c1ccc2cncc(N3C(=O)N(c4cc(F)cc(F)c4)C[C@@H]3C#N)c2c1 (single isomer, unassigned) [Compound 86a]",20 to 200 nM
8,"COCCNC(=O)c1ccc2cncc(N3C(=O)N(c4cccc(Cl)c4)CC3C#N)c2c1 (stereo not drawn) [Compound 36, 4-(3-(3-chlorophenyl)-5-cyano-2-oxoimidazolidin-1-yl)-N-(2-methoxyethyl)isoquinoline-6-carboxamide]",20 to 200 nM
9,"N#CC1CN(C2CCCC(F)(F)C2)C(=O)N1c1cncc2ccccc12 (stereo not drawn) [Compound 29, 1-(3,3-difluorocyclohexyl)-3-(isoquinolin-4-yl)-2-oxoimidazolidine-4-carbonitrile]",20 to 200 nM
10,"N#Cc1ccc(Cl)cc1N1C[C@@H](C#N)N(c2cncc3ccccc23)C1=O (single isomer, unassigned) [Compound 20b]",> 1000 nM
11,"Cc1ncc(N2C[C@@H](C#N)N(c3cncc4ccccc34)C2=O)cn1 (single isomer, unassigned) [Compound 79b]",> 1000 nM
12,"N#C[C@H]1CN(c2cncc(C(F)(F)F)c2)C(=O)N1c1cncc2ccccc12 (single isomer, unassigned) [Compound 104a]",< 20 nM
13,"N#C[C@@H]1CN(c2ccc(C(F)(F)F)cn2)C(=O)N1c1cncc2ccccc12 (single isomer, unassigned) [Compound 97b]",> 1000 nM
14,"N#C[C@H]1CN(c2nccc(C(F)(F)F)n2)C(=O)N1c1cncc2ccccc12 (single isomer, unassigned) [Compound 49a]",20 to 200 nM
15,"N#C[C@@H]1CN(c2cnc(C(F)(F)F)cn2)C(=O)N1c1cncc2ccccc12 (single isomer, unassigned) [Compound 32b]",> 1000 nM
16,"Cc1ccc(Cl)cc1N1C[C@@H](C#N)N(c2cncc3ccccc23)C1=O (single isomer, unassigned) [Compound 114b]",> 1000 nM
17,"N#Cc1ccc(N2C[C@H](C#N)N(c3cncc4ccccc34)C2=O)cc1 (single isomer, unassigned) [Compound 50a]",< 20 nM
18,"N#CC1CN(C2CC(O)(C(F)(F)F)C2)C(=O)N1c1cncc2ccccc12 (racemic) [Compound 28, 1-(3-hydroxy-3-(trifluoromethyl)cyclobutyl)-3-(isoquinolin-4-yl)-2-oxoimidazolidine-4-carbonitrile]",20 to 200 nM
19,"N#C[C@@H]1CN(c2ccccc2F)C(=O)N1c1cncc2ccccc12 (single isomer, unassigned) [Compound 56b]",> 1000 nM

row,SMILES,IC50
1,"N#C[C@H]1CN(c2ccnc(C(F)(F)F)c2)C(=O)N1c1cncc2ccccc12 (single isomer, unassigned) [Compound 57a]",< 20 nM
2,"N#Cc1ccc2cncc(N3C(=O)N(c4cccc(Cl)c4)C[C@H]3C#N)c2c1 (single isomer, unassigned) [Compound 39b]",> 1000 nM
3,"N#C[C@H]1CN([C@H]2C[C@H](C3CC3)C2)C(=O)N1c1cncc2ccccc12 [Compound 124b, (R)-1-((1r,3R)-3-cyclopropylcyclobutyl)-3-(isoquinolin-4-yl)-2-oxoimidazolidine-4-carbonitrile]",< 20 nM
4,"CS(=O)(=O)c1ccc2cncc(N3C(=O)N(c4cccc(Cl)c4)C[C@H]3C#N)c2c1 (single isomer, unassigned) [Compound 37b]",> 1000 nM
5,"CC1(C)CC(N2C[C@H](C#N)N(c3cncc4ccccc34)C2=O)C1 (single isomer, unassigned) [Compound 126a]",< 20 nM
6,"N#C[C@H]1CN(c2cnc(C(F)(F)F)nc2)C(=O)N1c1cncc2ccccc12 (single isomer, unassigned) [Compound 93a]",< 20 nM
7,"Cc1ccc(C#N)c(N2C[C@@H](C#N)N(c3cncc4ccccc34)C2=O)c1 (single isomer, unassigned) [Compound 116b]",200 to 1000 nM
8,"N#C[C@@H]1CN([C@@H]2CCN(C(=O)CO)C2)C(=O)N1c1cncc2ccccc12 (single isomer, unassigned) [Compound 25b]",> 1000 nM
9,"N#C[C@H]1CN(c2cc(OC(F)F)ccc2F)C(=O)N1c1cncc2ccccc12 (single isomer, unassigned) [Compound 59a]",20 to 200 nM
10,"N#Cc1cnc(C(F)(F)F)cc1N1C[C@@H](C#N)N(c2cncc3ccccc23)C1=O (single isomer, unassigned) [Compound 117b]",200 to 1000 nM
11,"N#C[C@H]1CN(c2cc(C(F)(F)F)cnn2)C(=O)N1c1cncc2ccccc12 (single isomer, unassigned) [Compound 30a]",< 20 nM
12,"CS(=O)(=O)c1ccc2cncc(N3C(=O)N(c4ccc(F)c(F)c4)C[C@H]3C#N)c2c1 (single isomer, unassigned) [Compound 85b]",> 1000 nM
13,"N#Cc1ccc(N2C[C@@H](C#N)N(c3cncc4ccccc34)C2=O)cc1 (single isomer, unassigned) [Compound 50b]",> 1000 nM
14,"CS(=O)(=O)c1ccc2cncc(N3C(=O)N(c4ccc(F)c(F)c4)C[C@@H]3C#N)c2c1 (single isomer, unassigned) [Compound 85a]",< 20 nM
15,"Cc1ncc(C(F)(F)F)cc1N1C[C@H](C#N)N(c2cncc3ccccc23)C1=O (single isomer, unassigned) [Compound 88a]",< 20 nM
16,"N#C[C@H]1CN(c2ccc(F)c(Cl)c2)C(=O)N1c1cncc2ccccc12 (single isomer, unassigned) [Compound 87a]",< 20 nM
17,"N#Cc1cc(Cl)ccc1N1CC(C#N)N(c2cncc3ccccc23)C1=O (racemic) [Compound 60, 1-(4-chloro-2-cyanophenyl)-3-(isoquinolin-4-yl)-2-oxoimidazolidine-4-carbonitrile]",20 to 200 nM
18,"COc1cc(C(F)(F)F)ncc1N1C[C@H](C#N)N(c2cncc3ccccc23)C1=O (single isomer, unassigned) [Compound 107a]",20 to 200 nM
19,"N#C[C@H]1CN(c2ccc(F)cc2F)C(=O)N1c1cncc2ccccc12 (single isomer, unassigned) [Compound 66a]",< 20 nM

row,SMILES,IC50
1,"N#C[C@@H]1CN(c2ccc(F)cc2F)C(=O)N1c1cncc2ccccc12 (single isomer, unassigned) [Compound 66b]",> 1000 nM
2,"N#C[C@H]1CN([C@@H]2CCN(CCO)C2)C(=O)N1c1cncc2ccccc12 (single isomer, unassigned) [Compound 46a]",> 1000 nM
3,"Cc1ccc(C(F)(F)F)cc1N1C[C@@H](C#N)N(c2cncc3ccccc23)C1=O (single isomer, unassigned) [Compound 24b]",> 1000 nM
4,"N#CC1CN(c2ccc(F)c(Cl)c2)C(=O)N1c1cncc2ccccc12 (racemic) [Compound 87, 1-(3-chloro-4-fluorophenyl)-3-(isoquinolin-4-yl)-2-oxoimidazolidine-4-carbonitrile]",< 20 nM
5,"N#C[C@H]1CN(c2ccc(F)nc2)C(=O)N1c1cncc2ccccc12 (single isomer, unassigned) [Compound 55a]",20 to 200 nM
6,"Cc1cc(N2C[C@H](C#N)N(c3cncc4ccccc34)C2=O)cnc1C (single isomer, unassigned) [Compound 98a]",< 20 nM
7,"COc1cnc(C(F)(F)F)nc1N1C[C@@H](C#N)N(c2cncc3ccccc23)C1=O (single isomer, unassigned) [Compound 31b]",> 1000 nM
8,"Cc1cc(N2C[C@@H](C#N)N(c3cncc4ccccc34)C2=O)cnc1C (single isomer, unassigned) [Compound 98b]",> 1000 nM
9,"COc1cc(Cl)cnc1N1C[C@H](C#N)N(c2cncc3ccccc23)C1=O (single isomer, unassigned) [Compound 58a]",20 to 200 nM
10,"N#C[C@H]1CN(C23CC(C(F)(F)F)(C2)C3)C(=O)N1c1cncc2ccccc12 (single isomer, unassigned) [Compound 137a]",< 20 nM
11,"Cc1c[nH]c(N2C[C@H](C#N)N(c3cncc4ccccc34)C2=O)n1 (single isomer, unassigned) [Compound 118a]",200 to 1000 nM
12,"N#C[C@@H]1CN(C2CC3(C2)CC(F)(F)C3)C(=O)N1c1cncc2ccccc12 (single isomer, unassigned) [Compound 127b]",> 1000 nM
13,"N#C[C@@H]1CN(c2cccc(F)n2)C(=O)N1c1cncc2ccccc12 (single isomer, unassigned) [Compound 61b]",> 1000 nM
14,"N#CC1CN(C2CN(C3CC3)C2)C(=O)N1c1cncc2ccccc12 (racemic) [Compound 135, 1-(1-cyclopropylazetidin-3-yl)-3-(isoquinolin-4-yl)-2-oxoimidazolidine-4-carbonitrile]",20 to 200 nM
15,"C[C@]1(C#N)CN(c2cccc(Cl)c2)C(=O)N1c1cncc2ccccc12 (single isomer, unassigned) [Compound 40a]",200 to 1000 nM
16,"N#C[C@@H]1CN(c2cc(F)cc(F)c2)C(=O)N1c1cncc2ccccc12 (single isomer, unassigned) [Compound 110b]",200 to 1000 nM
17,"Cc1cnc(C(F)(F)F)cc1N1C[C@H](C#N)N(c2cncc3ccccc23)C1=O (single isomer, unassigned) [Compound 70a]",< 20 nM
18,"N#C[C@@H]1CN(c2ccc(C(F)F)cn2)C(=O)N1c1cncc2ccccc12 (single isomer, unassigned) [Compound 78b]",> 1000 nM
